Experimental data as given in US9079866B2, “Flap modulators” (JANSSEN PHARMACEUTICA NV, priority 2013, dated 2015).
Where a name gives a salt, the structure may show the parent alone. Read-outs that look alike come from different tables or passages of the source.

Tests used:
human FLAP = human FLAP (Homo sapiens (Human), UniProt P20292); assay: FLAP binding assay (HTRF format)
How it was run: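 Samples were run in duplicate on each of two assay plates, the results were averaged, and the signal was expressed as an HTRF ratio.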

[1] = system: leukotriene pathway in human whole blood (LTB4 levels); assay: Human whole blood assay (A23187-stimulated LTB4); type: cell-based; conditions: Homo sapiens, human whole blood diluted 1:1, A23187-stimulated; read-out: LTB4 IC50 1:1
How it was run: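 Blood (heparin) diluted 1:1 RPMI; compound pre-incubation 15 min, 37° Celsius; A23187 7 μg/mL, 30 min, 37° Celsius; plasma LTB4 by commercial kit. IC50 via 4-parameter equation.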

Sequence of human FLAP (P20292 whole entry): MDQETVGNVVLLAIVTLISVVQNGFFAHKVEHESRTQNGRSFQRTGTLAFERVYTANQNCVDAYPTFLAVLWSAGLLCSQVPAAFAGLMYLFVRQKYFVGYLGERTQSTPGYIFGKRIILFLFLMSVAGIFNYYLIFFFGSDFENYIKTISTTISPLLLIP

Structure (SMILES)	Ki (human FLAP; wild type FLAP, HTRF format) [nM]	IC50 [1] [nM]	Ki (human FLAP; read-out: FLAP Binding wild type HTRF Ki) [nM]
CC(C)(C)NS(=O)(=O)c1ccccc1-c1ccc(-c2ccc(N)cn2)c(F)c1 [Example 427, 4′-(5-Aminopyridin-2-yl)-N-tert-butyl-3′-fluorobiphenyl-2-sulfonamide]	54	1600	
CC(C)(C)NS(=O)(=O)c1ccccc1-c1ccc(-c2cnc(N)c(N)n2)c(F)c1 [Example 428, N-tert-Butyl-4′-(5,6-diaminopyrazin-2-yl)-3′-fluorobiphenyl-2-sulfonamide]	4	4	
CC(C)(C)NS(=O)(=O)c1ccccc1-c1ccc(-c2cnc3[nH]c(=O)[nH]c3n2)c(F)c1 [Example 429, N-tert-Butyl-3′-fluoro-4′-(2-oxo-2,3-dihydro-1H-imidazo[4,5-b]pyrazin-5-yl)biphenyl-2-sulfonamide]	13	209	
CC(C)(C)NS(=O)(=O)c1ccccc1-c1ccc(-c2cnc3c(c2)CCN3)c(F)c1 [Example 431, N-tert-Butyl-4′-(2,3-dihydro-1H-pyrrolo[2,3-b]pyridin-5-yl)-3′-fluorobiphenyl-2-sulfonamide]	1	9	
CC(C)(C)NS(=O)(=O)c1ccccc1-c1ccc(-c2cnc3[nH]cnc3c2)c(F)c1 [Example 432, N-tert-Butyl-3′-fluoro-4′-(3H-imidazo[4,5-b]pyridin-6-yl)biphenyl-2-sulfonamide]	4	19	
COc1nc(-c2ccc(-c3ccccc3S(=O)(=O)NC(C)(C)C)cc2F)cnc1N [Example 433, 4′-(5-Amino-6-methoxypyrazin-2-yl)-N-tert-butyl-3′-fluorobiphenyl-2-sulfonamide]	1	25	
CC(C)(C)NS(=O)(=O)c1ccccc1-c1ccc(-c2cnc(N)c(C#N)n2)c(F)c1 [Example 434, 4′-(5-Amino-6-cyanopyrazin-2-yl)-N-tert-butyl-3′-fluorobiphenyl-2-sulfonamide]	1	36	
CC(C)(C)NS(=O)(=O)c1ccccc1-c1ccc(-c2ncc(N)nc2C#N)c(F)c1 [Example 435, 4′-(5-Amino-3-cyanopyrazin-2-yl)-N-tert-butyl-3′-fluorobiphenyl-2-sulfonamide]	9	166	
CC(C)(C)NS(=O)(=O)c1ccccc1-c1ccc(-c2cnc(N)cc2C#N)c(F)c1 [Example 436, 4′-(6-Amino-4-cyanopyridin-3-yl)-N-tert-butyl-3′-fluorobiphenyl-2-sulfonamide]	308	3280	
CC(C)(C)NS(=O)(=O)c1ccccc1-c1ccc(-c2ccc(N)nc2C#N)c(F)c1 [Example 437, 4′-(6-Amino-2-cyanopyridin-3-yl)-N-(tert-butyl)-3′-fluoro-[1,1′-biphenyl]-2-sulfonamide]	23	381	
CC(C)(C)NS(=O)(=O)c1ccccc1-c1ccc(-c2nnc(N)s2)c(F)c1 [Example 438, 4′-(5-Amino-1,3,4-thiadiazol-2-yl)-N-(tert-butyl)-3′-fluoro-[1,1′-biphenyl]-2-sulfonamide]	1	17	
C[C@H](CO)NS(=O)(=O)c1ccccc1-c1ccc(-c2nnc(N)s2)c(F)c1 [Example 439, (R)-4′-(5-Amino-1,3,4-thiadiazol-2-yl)-3′-fluoro-N-(1-hydroxypropan-2-yl)-[1,1′-biphenyl]-2-sulfonamide]	63	300	
Nc1nnc(-c2ccc(-c3ccccc3S(=O)(=O)N3CCS(=O)(=O)CC3)cc2F)s1 [Example 440, 4-((4′-(5-Amino-1,3,4-thiadiazol-2-yl)-3′-fluoro-[1,1′-biphenyl]-2-yl)sulfonyl)thiomorpholine 1,1-dioxide]	31	215	
CC(C)(C)NS(=O)(=O)c1ccccc1-c1ccc(-c2cnc(N)c(Cl)n2)c(F)c1 [Example 441, 4′-(5-Amino-6-chloropyrazin-2-yl)-N-tert-butyl-3′-fluorobiphenyl-2-sulfonamide]	1	6	
CC(C)(C)NS(=O)(=O)c1ccccc1-c1ccc(-c2cnc(N)c(Br)n2)c(F)c1 [Example 442, 4′-(5-Amino-6-bromopyrazin-2-yl)-N-tert-butyl-3′-fluorobiphenyl-2-sulfonamide]	1	9	
CC(C)(C)NS(=O)(=O)c1ccccc1-c1ccc(-c2cnc(N)c(C(F)(F)F)c2)c(F)c1 [Example 452, 4′-[6-Amino-5-(trifluoromethyl)pyridin-3-yl]-N-tert-butyl-3′-fluorobiphenyl-2-sulfonamide trifluoroacetic acid salt]		1950	81

The next lines start with results.

Ki (human FLAP; wild type FLAP, HTRF format) [nM]	IC50 [1] [nM]	Structure (SMILES)	Ki (human FLAP; read-out: FLAP Binding wild type HTRF Ki) [nM]
343	3330	N#Cc1nc(N)ccc1-c1ccc(-c2ccccc2S(=O)(=O)C2CC2)cc1F [Example 443, 6-Amino-3-(2′-(cyclopropylsulfonyl)-3-fluoro-[1,1′-biphenyl]-4-yl)picolinonitrile]	
183	> 10000	CC(C)(C)NS(=O)(=O)c1ccccc1-c1ccc(-c2ccn3cnnc3c2)c(F)c1 [Example 444, N-tert-Butyl-3′-fluoro-4′-[1,2,4]triazolo[4,3-a]pyridin-7-ylbiphenyl-2-sulfonamide]	
1	8	Cc1nc(-c2ccc(-c3ccccc3S(=O)(=O)NC(C)(C)C)cc2F)cnc1N [Example 445, 4′-(5-Amino-6-methylpyrazin-2-yl)-N-tert-butyl-3′-fluorobiphenyl-2-sulfonamide]	
3	144	CC(C)(C)NS(=O)(=O)c1ccccc1-c1ccc(-c2cnc3[nH]cnc3n2)c(F)c1 [Example 447, N-tert-Butyl-3′-fluoro-4′-(1H-imidazo[4,5-b]pyrazin-5-yl)biphenyl-2-sulfonamide]	
10	112	CC(C)(C)NS(=O)(=O)c1ccccc1-c1ccc(-c2cnc(N)c(N)c2)c(F)c1 [Example 448, N-tert-Butyl-4′-(5,6-diaminopyridin-3-yl)-3′-fluorobiphenyl-2-sulfonamide]	
22	79	CNS(=O)(=O)c1ccccc1-c1ccc(-c2cnc(N)c(C)n2)c(F)c1 [Example 449, 4′-(5-Amino-6-methylpyrazin-2-yl)-3′-fluoro-N-methylbiphenyl-2-sulfonamide]	
74	340	CC(C)(C)NS(=O)(=O)c1ccccc1-c1ccc(-c2cnc(N)c(C#N)c2)c(F)c1 [Example 450, 4′-(6-Amino-5-cyanopyridin-3-yl)-N-tert-butyl-3′-fluorobiphenyl-2-sulfonamide trifluoroacetic acid salt]	
2	38	CC(C)(C)NS(=O)(=O)c1ccccc1-c1ccc(-c2cnc(N)c(Cl)c2)c(F)c1 [Example 451, 4′-(6-Amino-5-chloropyridin-3-yl)-N-tert-butyl-3′-fluorobiphenyl-2-sulfonamide trifluoroacetic acid salt]	
> 10000	> 10000	CC(C)(C)NS(=O)(=O)c1ccccc1-c1ccc(-c2cnc(N)nc2C(F)(F)F)c(F)c1 [Example 453, 4′-[2-Amino-4-(trifluoromethyl)pyrimidin-5-yl]-N-tert-butyl-3′-fluorobiphenyl-2-sulfonamide trifluoroacetic acid salt]	
12	345	Cc1nc(N)ncc1-c1ccc(-c2ccccc2S(=O)(=O)NC(C)(C)C)cc1F [Example 454, 4-′-(2-Amino-4-methylpyrimidin-5-yl)-N-tert-butyl-3′-fluorobiphenyl-2-sulfonamide trifluoroacetic acid salt]	
1	94	CC(C)(C)NS(=O)(=O)c1ccccc1-c1ccc(-c2cnc3[nH]cc(CO)c3c2)c(F)c1 [Example 455, N-tert-Butyl-3′-fluoro-4′-[3-(hydroxymethyl)-1H-pyrrolo[2,3-b]pyridin-5-yl]biphenyl-2-sulfonamide]	
3	114	Nc1cc(-c2ccc(-c3ccccc3S(=O)(=O)NC3(CO)CCCC3)cc2F)cc2cc[nH]c12 [Example 456, 4′-(7-Amino-1H-indol-5-yl)-3′-fluoro-N-[1-(hydroxymethyl)cyclopentyl]biphenyl-2-sulfonamide]	
3	140	CNS(=O)(=O)c1ccccc1-c1ccc(-c2cnc3[nH]cc(CO)c3c2)c(F)c1 [Example 457, 3′-Fluoro-4′-[3-(hydroxymethyl)-1H-pyrrolo[2,3-b]pyridin-5-yl]-N-methylbiphenyl-2-sulfonamide]	
41	209	CS(=O)(=O)c1ccccc1-c1ccc(-c2cnc(N)cn2)c(F)c1F [Example 461, 5-[2,3-Difluoro-2′-(methylsulfonyl)biphenyl-4-yl]pyrazin-2-amine]	
2	62	CC(C)(C)NS(=O)(=O)c1ccccc1-c1ccc(-c2cnc(N)cn2)c(F)c1F [Example 462, 4′-(5-Aminopyrazin-2-yl)-N-tert-butyl-2′,3′-difluorobiphenyl-2-sulfonamide]	
186	957	CNS(=O)(=O)c1ccccc1-c1ccc(-c2cnc(N)nc2)c(F)c1F [Example 465, 4′-(2-Aminopyrimidin-5-yl)-2′,3′-difluoro-N-methylbiphenyl-2-sulfonamide trifluoroacetic acid salt]	
250	2830	Nc1cnc(-c2ccc(-c3ccc(OC(F)(F)F)cc3F)cc2F)cn1 [Example 467, 5-[2′,3-Difluoro-4′-(trifluoromethoxy)biphenyl-4-yl]pyrazin-2-amine]	
250	2350	Nc1cnc(-c2ccc(-c3ccccc3Cl)cc2F)cn1 [Example 469, 5-(2′-Chloro-3-fluorobiphenyl-4-yl)pyrazin-2-amine]	
250	3400	Nc1cnc(-c2ccc(-c3ccc(C(F)(F)F)cc3F)cc2F)cn1 [Example 471, 5-[2′,3-Difluoro-4′-(trifluoromethyl)biphenyl-4-yl]pyrazin-2-amine]	
